Data: article PMC4136709 (ACS Chemical Biology, 2014)

What was measured:
[1] = molecular target: T1, PhaCRe (Cupriavidus necator, UniProt P23608); assay: discontinuous DTNB assay of CoA release; assay type: biochemical
T1 sequence (P23608 1-589): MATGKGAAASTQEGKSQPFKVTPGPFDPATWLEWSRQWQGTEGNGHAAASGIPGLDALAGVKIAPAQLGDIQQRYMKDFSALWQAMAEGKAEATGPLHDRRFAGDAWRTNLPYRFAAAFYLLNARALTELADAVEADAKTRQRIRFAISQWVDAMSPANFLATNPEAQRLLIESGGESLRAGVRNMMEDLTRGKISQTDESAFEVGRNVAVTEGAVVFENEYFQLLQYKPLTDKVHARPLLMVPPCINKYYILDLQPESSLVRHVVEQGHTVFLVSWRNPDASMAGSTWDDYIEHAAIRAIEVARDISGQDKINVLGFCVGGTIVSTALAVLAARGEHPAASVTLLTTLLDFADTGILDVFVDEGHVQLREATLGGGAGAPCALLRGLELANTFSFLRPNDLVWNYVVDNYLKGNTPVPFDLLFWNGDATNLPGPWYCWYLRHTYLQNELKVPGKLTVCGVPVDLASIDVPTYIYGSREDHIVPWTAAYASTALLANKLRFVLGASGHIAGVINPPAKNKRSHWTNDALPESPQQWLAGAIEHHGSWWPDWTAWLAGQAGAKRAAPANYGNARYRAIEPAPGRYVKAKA

[2] = molecular target: T2, PhaECAv (Allochromatium vinosum, UniProt P45370); assay: discontinuous DTNB assay of CoA release; assay type: biochemical
T2 sequence (P45370 1-355): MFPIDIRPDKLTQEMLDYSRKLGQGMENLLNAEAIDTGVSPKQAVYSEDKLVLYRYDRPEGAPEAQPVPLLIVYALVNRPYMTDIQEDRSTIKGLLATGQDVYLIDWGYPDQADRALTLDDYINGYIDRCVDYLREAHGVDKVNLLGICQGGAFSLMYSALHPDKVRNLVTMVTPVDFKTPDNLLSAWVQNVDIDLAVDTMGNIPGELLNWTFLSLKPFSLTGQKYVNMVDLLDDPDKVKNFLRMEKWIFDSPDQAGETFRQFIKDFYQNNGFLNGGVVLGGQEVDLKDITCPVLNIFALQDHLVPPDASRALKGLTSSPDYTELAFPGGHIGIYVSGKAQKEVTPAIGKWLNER
T2 sequence (P45372 1-357 partner): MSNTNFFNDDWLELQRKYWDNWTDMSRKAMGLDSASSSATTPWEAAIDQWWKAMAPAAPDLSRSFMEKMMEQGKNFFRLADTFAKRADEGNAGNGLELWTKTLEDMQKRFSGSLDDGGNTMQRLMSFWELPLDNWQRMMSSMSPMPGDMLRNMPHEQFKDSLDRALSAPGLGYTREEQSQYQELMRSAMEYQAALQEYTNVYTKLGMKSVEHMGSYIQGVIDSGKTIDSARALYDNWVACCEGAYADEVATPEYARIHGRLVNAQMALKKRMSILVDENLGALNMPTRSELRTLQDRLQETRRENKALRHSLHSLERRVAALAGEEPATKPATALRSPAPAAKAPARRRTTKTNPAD

In the case of `C[C@@H](O)CC(=O)CCCNC(=O)CCNC(=O)[C@H](O)C(C)(C)COP(=O)(O)OP(=O)(O)OC[C@H]1O[C@@H](n2cnc3c(N)ncnc32)[C@H](O)[C@@H]1OP(=O)(O)O` [compound 1, HBCH2CoA], the Ki [1] is reported as 14.1 µM and the Ki [2] is reported as 40.1 µM.
